According to patent US9951065B2 (Gilead Sciences, Inc., priority 2015, dated 2018):

Target: T1, IDO1 (Homo sapiens, UniProt P14902)
T1 construct: HeLa cells were treated with a test compound in the presence of IFNγ, which induces IDO1 expression; host or cells: H1-HeLa cells, IDO1 induced with IFNγ
Test: Cell-based (HeLa) assay for measurement of IDO1 inhibition (kynurenine levels in supernatant after IFNγ induction)
Details: HeLa cells, IFNγ-induced IDO1, kynurenine in supernatant after 48 hour incubation; geometric mean of a minimum of four determinations
Procedure, shortened: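 HeLa cells, 1,250 per well, treated with compound (0.5% DMSO final) plus IFNγ to induce IDO1, for 48 h. Supernatant kynurenine measured by TCA hydrolysis at 60 °C, then p-dimethylaminobenzaldehyde, absorbance 480 nm. EC50 from a four-parameter fit normalized to −/+IFNγ controls; geometric mean of at least four runs.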

T1 sequence (P14902 whole entry): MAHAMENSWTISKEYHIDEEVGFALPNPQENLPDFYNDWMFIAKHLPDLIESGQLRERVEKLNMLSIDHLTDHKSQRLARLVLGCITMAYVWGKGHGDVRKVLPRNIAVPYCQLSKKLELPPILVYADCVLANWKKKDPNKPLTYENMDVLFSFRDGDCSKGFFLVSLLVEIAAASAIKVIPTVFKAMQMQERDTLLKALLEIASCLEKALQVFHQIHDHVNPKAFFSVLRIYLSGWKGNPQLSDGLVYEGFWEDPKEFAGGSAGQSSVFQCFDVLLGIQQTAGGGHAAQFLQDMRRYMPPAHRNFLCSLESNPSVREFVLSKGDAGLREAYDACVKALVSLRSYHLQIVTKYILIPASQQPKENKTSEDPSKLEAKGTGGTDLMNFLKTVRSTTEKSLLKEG

Q: Which EC50 does the source give for `COCCNCc1nc2nccc(/C(=N/O)Nc3ccc(F)c(Cl)c3)c2[nH]1` [Example 124, N-(3-Chloro-4-fluorophenyl)-N′-hydroxy-2-(((2-methoxyethyl)amino)methyl)-1H-imidazo[4,5-b]pyridine-7-carboximidamide] here?
A: Its EC50 is 2060 nM.

Q: Which EC50 does the source give for `O/N=C(\Nc1ccc(F)c(Cl)c1)c1cc(F)c(F)c2nc(NCCN3CCC(F)(F)CC3)[nH]c12` [Example 36, N-(3-Chloro-4-fluorophenyl)-2-((2-(4,4-difluoropiperidin-1-yl)ethyl)amino)-4,5-difluoro-N′-hydroxy-1H-benzo[d]imidazole-7-carboximidamide] here?
A: Its EC50 is 712 nM.

Q: `O/N=C(\Nc1ccc(F)c(Cl)c1)c1ccnc2nc(CNCc3nccs3)[nH]c12` [Example 144, N-(3-Chloro-4-fluorophenyl)-N′-hydroxy-2-(((thiazol-2-ylmethyl)amino)methyl)-1H-imidazo[4,5-b]pyridine-7-carboximidamide] was tested. Which EC50 did it give?
A: The EC50 was 8230 nM.

Q: With `Nc1nc2c(F)ccc(/C(=N/O)Nc3cccc(Cl)c3)c2[nH]1` [Example 20, 2-Amino-N-(3-chlorophenyl)-4-fluoro-N′-hydroxy-1H-benzo[d]imidazole-7-carboximidamide] as the compound, how does the EC50 read?
A: The EC50 was 404 nM.

Q: `O=S(=O)(NCc1nc2nccc(/C(=N/O)Nc3ccc(F)c(Cl)c3)c2[nH]1)c1ccccc1` [Example 180, N-(3-Chloro-4-fluorophenyl)-N′-hydroxy-2-(phenylsulfonamidomethyl)-1H-imidazo[4,5-b]pyridine-7-carboximidamide] was tested. Which EC50 did it give?
A: Its EC50 is 1410 nM.

Q: `O=S1(=O)CCN(CCNc2nc3nccc(/C(=N/O)Nc4ccc(F)c(Cl)c4)c3[nH]2)CC1` [Example 218, N-(3-chloro-4-fluorophenyl)-2-((2-(1,1-dioxidothiomorpholino)ethyl)amino)-N′-hydroxy-1H-imidazo[4,5-b]pyridine-7-carboximidamide] was tested. Which EC50 did it give?
A: Its EC50 is > 10000 nM.

Q: `CC(C)(CO)CNCc1nc2nccc(/C(=N/O)Nc3ccc(F)c(Cl)c3)c2[nH]1` [Example 143, N-(3-Chloro-4-fluorophenyl)-N′-hydroxy-2-(((3-hydroxy-2,2-dimethylpropyl)amino)methyl)-1H-imidazo[4,5-b]pyridine-7-carboximidamide] was tested. Which EC50 did it give?
A: Its EC50 is 7350 nM.

Q: How did the EC50 turn out when `CC(C)c1cc(N/C(=N\O)c2ccnc3nc[nH]c23)ccc1F` [Example 93, N-(4-Fluoro-3-isopropylphenyl)-N′-hydroxy-1H-imidazo[4,5-b]pyridine-7-carboximidamide] was run?
A: Its EC50 is 5100 nM.

Q: With `O/N=C(\Nc1ccc(F)c(C#CC2CC2)c1)c1ccnc2nc[nH]c12` [Example 79, N-(3-(Cyclopropylethynyl)-4-fluorophenyl)-N′-hydroxy-1H-imidazo[4,5-b]pyridine-7-carboximidamide] as the compound, how does the EC50 read?
A: The EC50 was 3220 nM.

Q: `CN1CCCCC(Nc2nc3nccc(/C(=N/O)Nc4ccc(F)c(Cl)c4)c3[nH]2)C1` (stereo not shown) [Example 217, N-(3-chloro-4-fluorophenyl)-N′-hydroxy-2-((1-methylazepan-3-yl)amino)-1H-imidazo[4,5-b]pyridine-7-carboximidamide] was tested. Which EC50 did it give?
A: Its EC50 is 2870 nM.

Q: For `O/N=C(\Nc1ccc(F)c(Cl)c1)c1ccnc2nc(CNCCc3ccccn3)[nH]c12` [Example 125, N-(3-Chloro-4-fluorophenyl)-N′-hydroxy-2-(((2-(pyridin-2-yl)ethyl)amino)methyl)-1H-imidazo[4,5-b]pyridine-7-carboximidamide], which EC50 is on record?
A: Its EC50 is 2080 nM.

Q: For `CN1CCOCC1CNc1nc2nccc(/C(=N/O)Nc3ccc(F)c(Cl)c3)c2[nH]1` (stereo not shown) [Example 282, N-(3-chloro-4-fluorophenyl)-N′-hydroxy-2-(((4-methylmorpholin-3-yl)methyl)amino)-1H-imidazo[4,5-b]pyridine-7-carboximidamide], which EC50 is on record?
A: The EC50 was > 10000 nM.

Q: How did the EC50 turn out when `O/N=C(\Nc1ccc(F)c(Cl)c1)c1ccc(C(F)(F)F)c2nc[nH]c12` [Example 7, N-(3-Chloro-4-fluorophenyl)-N′-hydroxy-4-(trifluoromethyl)-1H-benzo[d]imidazole-7-carboximidamide] was run?
A: The EC50 was 926 nM.

Q: Which EC50 does the source give for `CN(CCNc1nc2nccc(/C(=N/O)Nc3ccc(F)c(Cl)c3)c2[nH]1)C1CC1` [Example 231, N-(3-chloro-4-fluorophenyl)-2-((2-(cyclopropyl(methyl)amino)ethyl)amino)-N′-hydroxy-1H-imidazo[4,5-b]pyridine-7-carboximidamide] here?
A: The EC50 was 291 nM.

Q: With `CCc1cccc(N/C(=N\O)c2ccnc3nc[nH]c23)c1` [Example 96, N-(3-Ethylphenyl)-N′-hydroxy-1H-imidazo[4,5-b]pyridine-7-carboximidamide] as the compound, how does the EC50 read?
A: Its EC50 is 803 nM.

Q: With `CC(CN1CCOCC1)Nc1nc2c(F)c(F)cc(/C(=N/O)Nc3ccc(F)c(Cl)c3)c2[nH]1` (stereo not shown) [Example 37, N-(3-Chloro-4-fluorophenyl)-4,5-difluoro-N′-hydroxy-2-((1-morpholinopropan-2-yl)amino)-1H-benzo[d]imidazole-7-carboximidamide] as the compound, how does the EC50 read?
A: The EC50 was 514 nM.

Q: With `CC(C)(O)c1nc2nccc(/C(=N/O)Nc3ccc(F)c(Cl)c3)c2[nH]1` [Example 175, N-(3-Chloro-4-fluorophenyl)-N′-hydroxy-2-(2-hydroxypropan-2-yl)-1H-imidazo[4,5-b]pyridine-7-carboximidamide] as the compound, how does the EC50 read?
A: Its EC50 is 6420 nM.

Q: With `CN(C)CCNc1nc2c(F)ccc(/C(=N/O)Nc3ccc(F)c(Cl)c3)c2[nH]1` [Example 201, N-(3-Chloro-4-fluorophenyl)-2-[2-(dimethylamino)ethylamino]-7-fluoro-N′-hydroxy-3H-benzimidazole-4-carboximidamide] as the compound, how does the EC50 read?
A: The EC50 was 428 nM.

Q: How did the EC50 turn out when `CN(C)Cc1nc2c(/C(=N/O)Nc3ccc(F)c(Cl)c3)cc(F)c(F)c2[nH]1` [Example 52, N-(3-Chloro-4-fluorophenyl)-2-((dimethylamino)methyl)-6,7-difluoro-N′-hydroxy-4H-benzo[d]imidazole-4-carboximidamide] was run?
A: Its EC50 is 526 nM.

Q: How did the EC50 turn out when `NS(=O)(=O)CCNc1nc2c(F)c(F)cc(/C(=N/O)Nc3ccc(F)c(Cl)c3)c2[nH]1` [Example 298, N-(3-chloro-4-fluorophenyl)-4,5-difluoro-N′-hydroxy-2-((2-sulfamoylethyl)amino)-1H-benzo[d]imidazole-7-carboximidamide] was run?
A: The EC50 was 9560 nM.

Q: `CC(O)CNc1nc2c(F)c(F)cc(/C(=N/O)Nc3ccc(F)c(Cl)c3)c2[nH]1` (stereo not shown) [Example 293, N-(3-chloro-4-fluorophenyl)-4,5-difluoro-N′-hydroxy-2-((2-hydroxypropyl)amino)-1H-benzo[d]imidazole-7-carboximidamide] was tested. Which EC50 did it give?
A: Its EC50 is 3000 nM.

Same assay, conditions: HeLa cells, IFNγ-induced IDO1, kynurenine in supernatant, 48 hour incubation; geometric mean of a minimum of four determinations

Q: With `CN(C)CC(C)(C)CNc1nc2c(F)c(F)cc(/C(=N/O)Nc3ccc(F)c(Cl)c3)c2[nH]1` [Example 351, N-(3-chloro-4-fluorophenyl)-2-((3-(dimethylamino)-2,2-dimethylpropyl)amino)-4,5-difluoro-N′-hydroxy-1H-benzo[d]imidazole-7-carboximidamide] as the compound, how does the EC50 read?
A: The EC50 was 432 nM.

Q: For `CS(=O)(=O)CCNc1nc2nccc(/C(=N/O)Nc3ccc(F)c(Cl)c3)c2[nH]1` [Example 493, N-(3-chloro-4-fluorophenyl)-N′-hydroxy-2-((2-(methylsulfonyl)ethyl)amino)-1H-imidazo[4,5-b]pyridine-7-carboximidamide], which EC50 is on record?
A: Its EC50 is 7210 nM.

Q: For `CN(C)CC(C)(C)CNc1nc2c(F)ccc(/C(=N/O)Nc3ccc(F)c(Cl)c3)c2[nH]1` [Example 381, N-(3-chloro-4-fluorophenyl)-2-((3-(dimethylamino)-2,2-dimethylpropyl)amino)-4-fluoro-N′-hydroxy-1H-benzo[d]imidazole-7-carboximidamide], which EC50 is on record?
A: The EC50 was 3030 nM.

Q: With `CN(C)[C@H]1CCCC[C@@H]1Nc1nc2c(F)c(F)cc(/C(=N/O)Nc3ccc(F)c(Cl)c3)c2[nH]1` [Example 444, N-(3-chloro-4-fluorophenyl)-2-(((1S,2S)-2-(dimethylamino)cyclohexyl)amino)-4,5-difluoro-N′-hydroxy-1H-benzo[d]imidazole-7-carboximidamide] as the compound, how does the EC50 read?
A: Its EC50 is 3140 nM.

Q: Which EC50 does the source give for `CN1CC[C@@H](Nc2nc3c(F)c(F)cc(/C(=N/O)Nc4ccc(F)c(Cl)c4)c3[nH]2)C1` [Example 457, (R)—N-(3-chloro-4-fluorophenyl)-4,5-difluoro-N′-hydroxy-2-((1-methylpyrrolidin-3-yl)amino)-1H-benzo[d]imidazole-7-carboximidamide] here?
A: Its EC50 is 271 nM.

Q: `O/N=C(\Nc1cccc(Br)c1)c1ccnc2nc(NCCN3CCOCC3)[nH]c12` [Example 306, N-(3-bromophenyl)-N′-hydroxy-2-((2-morpholinoethyl)amino)-1H-imidazo[4,5-b]pyridine-7-carboximidamide] was tested. Which EC50 did it give?
A: Its EC50 is 681 nM.

Q: With `CN(C)CCCNc1nc2cc(F)cc(/C(=N/O)Nc3ccc(F)c(Cl)c3)c2[nH]1` [Example 389, N-(3-chloro-4-fluorophenyl)-2-((3-(dimethylamino)propyl)amino)-5-fluoro-N′-hydroxy-1H-benzo[d]imidazole-7-carboximidamide] as the compound, how does the EC50 read?
A: The EC50 was 1160 nM.

Q: With `CC1CN(CCNc2nc3nccc(/C(=N/O)Nc4ccc(F)c(Cl)c4)c3[nH]2)C(C)CO1` (stereo not shown) [Example 485, N-(3-chloro-4-fluorophenyl)-2-((2-(2,5-dimethylmorpholino)ethyl)amino)-N′-hydroxy-1H-imidazo[4,5-b]pyridine-7-carboximidamide] as the compound, how does the EC50 read?
A: The EC50 was 639 nM.

Q: Which EC50 does the source give for `COC1CN(CCNc2nc3c(F)c(F)cc(/C(=N/O)Nc4ccc(F)c(Cl)c4)c3[nH]2)C1` [Example 456, N-(3-chloro-4-fluorophenyl)-4,5-difluoro-N′-hydroxy-2-((2-(3-methoxyazetidin-1-yl)ethyl)amino)-1H-benzo[d]imidazole-7-carboximidamide] here?
A: Its EC50 is 274 nM.

Q: With `OCC1CCCCN1CCNc1nc2c(F)c(F)cc(/C(=N/O)Nc3ccc(F)c(Cl)c3)c2[nH]1` (stereo not shown) [Example 489, N-(3-chloro-4-fluorophenyl)-4,5-difluoro-N′-hydroxy-2-((2-(2-(hydroxymethyl)piperidin-1-yl)ethyl)amino)-1H-benzo[d]imidazole-7-carboximidamide] as the compound, how does the EC50 read?
A: Its EC50 is 289 nM.
